Source: patent publication US11738037B2, “Agent for preventing or improving decline in brain function” (KYOWA HAKKO BIO CO., LTD., priority 2012, dated 2023)

Tests used:
Assay type in all cases: in vivo, C57BL/6J mice
[1] = test system: bilateral common carotid arteries occlusion mice; assay: Y-maze test (spontaneous alternation behavior); details: oral, after 7 days of administration, FIG. 1
Description: (§1) Experimental Example: 10-week-old male C57BL/6J mice (CLEA Japan, Inc. approximately 25 g of average body weight per mouse) were preliminarily acclimated for 1 week, and provided for experiments. L-citrulline and citicoline were obtained from KYOWA HAKKO BIO CO., LTD.
(§2) C57BL/6J mice were divided into a sham-operation group (Group 1) and a bilateral common carotid arteries occlusion group, which was performed under halothane anesthesia for 20 minutes. One day after reperfusion, the bilateral common carotid arteries occlusion group was further divided into a distilled water-treated group (Group 2), a low-dose L-citrulline-treated group (40 mg/kg: Group 3), a low-dose citicoline-treated group (40 mg/kg: Group 4), a high-dose L-citrulline-treated group (100 mg/kg: Group 5), a high-dose citicoline-treated group (100 mg/kg: Group 6), and a combination treatment group of a low dose of L-citrulline and a low dose of citicoline (each 40 mg/kg: Group 7). Each sample was orally administered for 12 days. […] After evaluating learning memory functions, the hippocampus was removed and viability of hippocampal nerve cells was evaluated.
In the Y-maze test, a Y-maze apparatus with three arms (50×16×32 cm) was used. […] The sequence of arm entries was recorded. The number of entries into each arm was counted during the measurement time, which was defined as the total number of entries. […]

[2] = test system: bilateral common carotid arteries occlusion mice; assay: Novel object recognition test; details: oral, after 7 days of administration, novel vs familiar object, FIG. 3
Description: as §1
as §2, with “7).” for “7). Each sample was orally administered for 12 days.”
The novel object recognition test was performed after mice were individually acclimated to the open field apparatus (35×25×35 cm) for 2 days. […] A ratio of the frequency of exploring the familiar or novel object over the total exploration frequency was calculated, and used as an index for visual recognition memory.

[3] = test system: bilateral common carotid arteries occlusion mice; assay: Passive avoidance test; details: oral, after 7 days of administration, compared to Group 2, FIG. 2
Description: as §1
(§3) C57BL/6J mice were divided into a sham-operation group (Group 1) and a bilateral common carotid arteries occlusion group, which was performed under halothane anesthesia for 20 minutes. […] After evaluating learning memory functions, the hippocampus was removed and viability of hippocampal nerve cells was evaluated.
The passive avoidance test was performed using a box consisting of dark (25×25×25 cm) and light compartments (14×10×25 cm) and being equipped with an electrical stimulation apparatus at the bottom of the dark compartment. […] Twenty four hours after training, the mouse was placed again in the light compartment, and the latency time spent in the light compartment was recorded with a maximum latency of 300 seconds.

[4] = test system: hippocampal nerve cells (CA1 pyramidal cell layer); assay: Evaluation of viability of hippocampal nerve cells; details: oral for 12 days, compared to Group 2, FIG. 4
Description: as §1, §3
Twelve days after bilateral occlusion of the common carotid arteries, mice were anesthetized with pentobarbital sodium, and perfused with ice-cold phosphate buffer (PBS, pH 7.4) until the blood in the body was completely removed. […] Surviving and non-surviving nerve cells in the CA1 pyramidal cell layer of the hippocampus were counted at 1.4 to 1.8 mm posterior to bregma, and cells with PI-positive nuclei and typical morphological characteristics were defined as surviving nerve cells. The cell viability was calculated from a ratio to the average number of surviving nerve cells in Group 1.

NC(=O)NCCC[C@H](N)C(=O)O [L-citrulline]
spontaneous alternation behavior rate (Alternation) ([1]; high dose 100 mg/kg, compared to Group 2): improved effect of memory behavior
spontaneous alternation behavior rate (Alternation) ([1]; low dose 40 mg/kg, compared to distilled water-treated occlusion group (Group 2)): Alternation cannot be improved
frequency of exploring the novel object ([2]; high dose 100 mg/kg): remarkably improved effect of memory behavior
frequency of exploring the novel object ([2]; low dose 40 mg/kg): frequency of exploring the novel object cannot be increased
time spent in the light compartment (Latency time) ([3]; high dose 100 mg/kg): improved effect of memory behavior
time spent in the light compartment (Latency time) ([3]; low dose 40 mg/kg): latency time cannot be improved
viability of hippocampal nerve cells ([4]; high dose 100 mg/kg): nerve cell-protecting effect
viability of hippocampal nerve cells ([4]; low dose 40 mg/kg): viability of hippocampal nerve cells cannot be improved
